What was measured:
[1] = Evaluation of brain penetration in mice (blood and brain concentration at brain Cmax); format: in vivo, mouse; details: 1 mg/kg single oral dose, C57BL/6J mice; for Concentration in blood (mean ± SD) at brain Cmax / Concentration in brain (mean ± SD) at brain Cmax: n=3; for Kp: male, C57BL/6J, mouse, brain/plasma, po, 1 mg/kg, read-out: Concentration in brain/in blood ratio at brain Cmax
Description: The administration solution was administered orally to C57BL/6J mice (8 weeks old, male, n=3) at a single dose (1 mg/kg). Mice were euthanized at 6 points of 0.25, 0.5, 1, 2, 4, and 8 hours after administration, and plasma and brain sampling were performed. After preparing a homogenate from the collected brain using Tissue Lyser II (QIAGEN #85300), acetonitrile was added to the homogenate and the homogenate was centrifuged (12000 rpm, 5 minutes) to extract the administered test compound contained in the brain. Similarly, the plasma was subjected to addition of acetonitrile and centrifugal separation to extract the administered test compound contained in the plasma. Each extracted sample was subjected to measurement of the concentration of administered test compound using LC/MS/MS (SHIMADZU UFLC/MS/MS (8050)).
Test 2 [0.2 mg/kg Administration Study] […] The administration solution was administered orally to C57BL/6J mice (8 weeks old, male, n=3) at a single dose (0.2 mg/kg). Mice were euthanized at 6 points of 0.25, 0.5, 1, 2, 4, and 8 hours after administration, and plasma and brain sampling were performed. After preparing a homogenate from the collected brain using Tissue Lyser II (QIAGEN #85300), acetonitrile was added to the homogenate and the homogenate was centrifuged (12000 rpm, 5 minutes) to extract the administered compound contained in the brain. Similarly, the plasma was subjected to addition of acetonitrile and centrifugal separation to extract the administered test compound contained in the plasma. Each extracted sample was subjected to measurement of the concentration of administered test compound using LC/MS/MS (SHIMADZU UFLC/MS/MS (8050)).

human VDR = target: T1, human VDR (Homo sapiens, UniProt P11473); experiment: Evaluation of VDR transcription activity in human osteoblasts (HOS cells), luciferase reporter; details: Activity (EC50, VDR transcription activity), HOS cells transfected with human VDR, human RXRα and DR3 luciferase reporter; 21 hours
T1 sequence (P11473 1-427): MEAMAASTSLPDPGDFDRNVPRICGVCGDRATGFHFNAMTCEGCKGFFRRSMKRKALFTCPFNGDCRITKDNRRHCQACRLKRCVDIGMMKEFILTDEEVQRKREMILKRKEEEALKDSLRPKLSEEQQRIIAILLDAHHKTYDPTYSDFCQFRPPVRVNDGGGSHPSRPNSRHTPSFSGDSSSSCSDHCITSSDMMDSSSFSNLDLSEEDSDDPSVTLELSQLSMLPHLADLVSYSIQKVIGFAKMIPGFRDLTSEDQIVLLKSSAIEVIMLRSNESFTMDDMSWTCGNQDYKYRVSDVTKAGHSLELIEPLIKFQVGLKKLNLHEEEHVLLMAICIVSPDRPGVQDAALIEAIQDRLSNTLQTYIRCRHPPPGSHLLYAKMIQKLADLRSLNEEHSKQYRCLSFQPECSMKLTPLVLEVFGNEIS
T1 sequence (P19793 1-462 partner): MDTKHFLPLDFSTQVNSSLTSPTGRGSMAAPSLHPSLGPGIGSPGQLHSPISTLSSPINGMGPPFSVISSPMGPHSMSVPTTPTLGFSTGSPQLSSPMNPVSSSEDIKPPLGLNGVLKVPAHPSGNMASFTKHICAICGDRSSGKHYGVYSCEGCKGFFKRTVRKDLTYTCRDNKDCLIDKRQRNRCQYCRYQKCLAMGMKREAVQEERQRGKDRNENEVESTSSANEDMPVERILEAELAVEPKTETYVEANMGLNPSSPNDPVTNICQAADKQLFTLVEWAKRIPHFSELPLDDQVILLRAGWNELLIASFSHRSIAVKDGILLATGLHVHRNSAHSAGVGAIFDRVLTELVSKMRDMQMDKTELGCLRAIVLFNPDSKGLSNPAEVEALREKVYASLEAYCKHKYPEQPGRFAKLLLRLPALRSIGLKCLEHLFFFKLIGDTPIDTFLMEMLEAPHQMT

[2] = tested on: rat oligodendrocyte progenitor cells; experiment: Promotive activity of rat oligodendrocyte progenitor cell differentiation-2 (immunostaining of MBP); format: cell-based; details: vitamin D derivative 2 μM, T3 30 nM, 4 days
Description: The promotive activity of oligodendrocyte progenitor cell (OPC) differentiation of the vitamin D derivatives was evaluated by immunostaining of MBP.
Subsequently, oligodendrocyte progenitor cell separation medium was added to the flask, and the mixture was similarly shaken for about 22 hours (37° C., 200 rpm), and the supernatant was collected to prepare oligodendrocyte progenitor cells.

Row | Structure (SMILES) | Concentration in blood (mean ± SD) at brain Cmax [1] | Concentration in brain (mean ± SD) at brain Cmax [1] | Kp [1] | EC50 (human VDR) | Mean (number of MBP-positive cells/number of Hoechst33342-positive cells) ([2]; Test 2) | Concentration in brain/in blood ratio at brain Cmax [1] | Mean (number of MBP-positive cells/number of Hoechst33342-positive cells) ([2]; Test 1) | Mean (number of MBP-positive cells/number of Hoechst33342-positive cells) ([2]; Test 4)
1 | C=C1[C@H](O)CC(=C/C=C2\CCC[C@]3(C)[C@@H]([C@H](C)CN4CCCC(O)(C(F)F)C4)CC[C@@H]23)C[C@H]1O (single isomer, unassigned) [Compound C036a] | 849 ± 40 nM | 566 ± 89 pmol/g | 0.67 | < 1 nM | 0.53 |  |  | 
2 | C=C1[C@H](O)CC(=C/C=C2\CCC[C@]3(C)[C@@H]([C@H](C)CN4CCCC(O)(C(F)F)C4)CC[C@@H]23)C[C@H]1O (single isomer, unassigned) [Compound C036b] | 853 ± 89 nM | 495 ± 16 pmol/g |  | 10 to 100 nM | 0.22 | 0.58 |  | 
3 | C=C1/C(=C\C=C2/CCC[C@]3(C)[C@@H]([C@H](C)CN4CC[C@H](C(F)F)C4)CC[C@@H]23)C[C@@H](O)C[C@@H]1O [Compound B020, (1R,3S,Z)-5-(2-((1R,3aS,7aR,E)-1-((S)-1-((S)-3-(difluoromethyl)pyrrolidin-1-yl)propan-2-yl)-7a-methyloctahydro-4H-inden-4-ylidene)ethylidene)-4-methylenecyclohexane-1,3-diol] | 676 ± 175 nM | 410 ± 23 pmol/g | 0.61 | 10 to 100 nM |  |  | 0.38 | 
4 | C[C@H](CN1CC[C@H](C(F)F)C1)[C@H]1CC[C@H]2/C(=C/C=C3C[C@@H](O)C[C@H](O)C3)CCC[C@]12C [Compound B022, (1R,3R)-5-(2-((1R,3aS,7aR,E)-1-((S)-1-((S)-3-(difluoromethyl)pyrrolidin-1-yl)propan-2-yl)-7a-methyloctahydro-4H-inden-4-ylidene)ethylidene)cyclohexane-1,3-diol] | 316 ± 84 nM | 529 ± 53 pmol/g | 1.67 | 10 to 100 nM |  |  | 0.47 | 
5 | C=C1[C@H](O)CC(=C/C=C2\CCC[C@]3(C)[C@@H]([C@H](C)CN4CC[C@H](C(F)F)C4)CC[C@@H]23)C[C@H]1O [Compound B023, (1R,3R)-5-(2-((1R,3aS,7aR,E)-1-((S)-1-((S)-3-(difluoromethyl)pyrrolidin-1-yl)propan-2-yl)-7a-methyloctahydro-4H-inden-4-ylidene)ethylidene)-2-methylenecyclohexane-1,3-diol] | 248 ± 28 nM | 852 ± 48 pmol/g | 3.44 | 1 to 10 nM |  |  | 0.50 | 
6 | C=C1/C(=C\C=C2/CCC[C@]3(C)[C@@H]([C@H](C)CN4CC[C@H](C(C)(F)F)C4)CC[C@@H]23)C[C@@H](O)[C@H](C)[C@@H]1O [Compound B029, (1R,2S,3S,Z)-5-(2-((1R,3aS,7aR,E)-1-((S)-1-((S)-3-(1,1-difluoroethyl)pyrrolidin-1-yl)propan-2-yl)-7a-methyloctahydro-4H-inden-4-ylidene)ethylidene)-2-methyl-4-methylenecyclohexane-1,3-diol] | 161 ± 40 nM | 156 ± 15 pmol/g | 0.97 | 1 to 10 nM |  |  | 0.31 | 
7 | C=C1/C(=C\C=C2/CCC[C@]3(C)[C@@H]([C@H](C)CN4CC[C@H](CC(F)F)C4)CC[C@@H]23)C[C@@H](O)C[C@@H]1O [Compound B036] | 61 ± 11 nM | 68 ± 36 pmol/g | 1.12 | 10 to 100 nM |  |  | 0.59 | 
8 | C=C1/C(=C\C=C2/CCC[C@]3(C)[C@@H]([C@H](C)CN4CC[C@@H](CC(F)F)C4)CC[C@@H]23)C[C@@H](O)C[C@@H]1O [Compound B037, (1R,3S,Z)-5-(2-((1R,3aS,7aR,E)-1-((S)-1-((S)-3-(2,2-difluoroethyl)pyrrolidin-1-yl)propan-2-yl)-7a-methyloctahydro-4H-inden-4-ylidene)ethylidene)-4-methylenecyclohexane-1,3-diol] | 88 ± 19 nM | 74 ± 17 pmol/g | 0.84 | 10 to 100 nM |  |  | 0.49 | 
9 | C=C1[C@H](O)CC(=C/C=C2\CCC[C@]3(C)[C@@H]([C@H](C)CN4CC[C@@H](CC(F)F)C4)CC[C@@H]23)C[C@H]1O [Compound B041, (1R,3R)-5-(2-((1R,3aS,7aR,E)-1-((S)-1-((S)-3-(2,2-difluoroethyl)pyrrolidin-1-yl)propan-2-yl)-7a-methyloctahydro-4H-inden-4-ylidene)ethylidene)-2-methylenecyclohexane-1,3-diol] | 207 ± 59 nM | 317 ± 19 pmol/g | 1.53 | 1 to 10 nM |  |  | 0.56 | 
10 | C[C@H](CN1CC[C@@H](OCC(F)F)C1)[C@H]1CC[C@H]2/C(=C/C=C3C[C@@H](O)C[C@H](O)C3)CCC[C@]12C [Compound B058, (1R,3R)-5-(2-((1R,3aS,7aR,E)-1-((S)-1-((R)-3-(2,2-difluoroethoxy)pyrrolidin-1-yl)propan-2-yl)-7a-methyloctahydro-4H-inden-4-ylidene)ethylidene)cyclohexane-1,3-diol] | 78 ± 15 nM | 67 ± 9 pmol/g | 0.86 |  | 0.49 |  |  | 
11 | C=C1/C(=C\C=C2/CCC[C@]3(C)[C@@H]([C@H](C)CN4CCOCC4(C)C)CC[C@@H]23)C[C@@H](O)C[C@H]1O [Compound I006, (1R,3R,Z)-5-(2-((1R,3aS,7aR,E)-1-((S)-1-(3,3-dimethylmorpholino)propan-2-yl)-7a-methyloctahydro-4H-inden-4-ylidene)ethylidene)-4-methylenecyclohexane-1,3-diol] |  |  |  |  |  |  |  | 0.51
